In US9643964B2, “3-(2-aminopyrimidin-4-yl)-5-(3-hydroxypropynyl)-1H-pyrrolo[2,3-C]pyridine derivatives as NIK inhibitors for the treatment of cancer” (Janssen Pharmaceutica NV, priority 2013, dated 2017):

Columns and labels:
L-363 cells = test: Biological Assay C: antiproliferative activity on L-363 cells (CellTiter-Glo); type: cell-based, human; conditions: Homo sapiens, L-363, 72 h, 72 hr treatment; averaged values
Summary of the method: (§1)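 Luminescent ATP signal (CellTiter-Glo) measures growth of myeloma cells following a 72 h compound treatment. Values for the time-zero blank are subtracted, and each mean of duplicate wells is given as percentage of the no-drug control.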

[1] = tested on: P-IKKα levels in L363 cells; test: Biological Assay B: effect of compounds on P-IKKα levels in L363 cells; type: cell-based; conditions: Homo sapiens, L-363, averaged values, read-out: IKKα Cellular IC50
Protocol: Effect of Compounds on P-IKKα Levels in L363 Cells
All compounds tested were dissolved in DMSO and further dilutions were made in culture medium. Final DMSO concentration was 1% (v/v) in cell assays. The human L363 cells (ATCC) were cultured in RPMI 1640 medium supplemented with GlutaMax and 10% fetal calf serum (PAA). Cells were routinely maintained at densities of 0.2×10^6 cells per ml-1×10^6 cells per ml at 37° C. in a humidified 5% CO2 atmosphere. Cells were passaged twice a week splitting back to obtain the low density. Cells were seeded in 96 well plates (Nunc 167008) at 2×10^6 per ml media in a volume of 75 μl per well plus 25 μl 1 μg/ml recombinant human B-cell activating factor BAFF/B1YS/TNFSF13B. Seeded cells were incubated at 37° C. in a humidified 5% CO2 atmosphere for 24 hr. Drugs and/or solvents were added (20 μl) to a final volume of 120 μl. Following 2 hr treatment plates were removed from the incubator and cell lysis was achieved by the addition of 30 μl 5× lysis buffer followed by shaking on a plate shaker at 4° C. for 10 min. At the end of this incubation lysed cells were centrifuged at 800×g for 20 min at 4° C. and the lysate was assessed for P-IKKα levels by sandwich immuno-assay carried out in anti-rabbit antibody coated Mesoscale plates. Within an experiment, the results for each treatment were the mean of 2 replicate wells. For initial screening purposes, compounds were tested using an 8 point dilution curve (serial 1:3 dilutions). For each experiment, controls (containing MG132 and BAFF but no test drug) and a blank incubation (containing MG132 and BAFF and 10 μM ADS125117, a test concentration known to give full inhibition) were run in parallel. The blank incubation value was subtracted from all control and sample values. To determine the IC50 a sigmoidal curve was fitted to the plot of % inhibition of control P-IKKα levels versus Log10 compound concentration.

LP-1 cells = test: Biological Assay C: antiproliferative activity on LP-1 cells (CellTiter-Glo); type: cell-based, human; conditions: Homo sapiens, LP-1, 72 h, 72 hr treatment; averaged values
Summary of the method: as §1

JJN-3 cells = test: Biological Assay C: antiproliferative activity on JJN-3 cells (CellTiter-Glo); type: cell-based, human; conditions: Homo sapiens, JJN-3, 72 h, 72 hr treatment; averaged values
Summary of the method: as §1

[2] = biological target: T1, Recombinant Human NF-kappaB-Inducing Kinase (NIK/MAP3K14) (Homo sapiens, UniProt Q99558); test: Biological Assay A2: inhibition of auto-phosphorylation of recombinant human NIK/MAP3K14 (AlphaScreen); type: biochemical; conditions: auto-phosphorylation; averaged over all measurements on all batches; read-out: αscreen IC50
T1 sequence (Q99558 whole entry): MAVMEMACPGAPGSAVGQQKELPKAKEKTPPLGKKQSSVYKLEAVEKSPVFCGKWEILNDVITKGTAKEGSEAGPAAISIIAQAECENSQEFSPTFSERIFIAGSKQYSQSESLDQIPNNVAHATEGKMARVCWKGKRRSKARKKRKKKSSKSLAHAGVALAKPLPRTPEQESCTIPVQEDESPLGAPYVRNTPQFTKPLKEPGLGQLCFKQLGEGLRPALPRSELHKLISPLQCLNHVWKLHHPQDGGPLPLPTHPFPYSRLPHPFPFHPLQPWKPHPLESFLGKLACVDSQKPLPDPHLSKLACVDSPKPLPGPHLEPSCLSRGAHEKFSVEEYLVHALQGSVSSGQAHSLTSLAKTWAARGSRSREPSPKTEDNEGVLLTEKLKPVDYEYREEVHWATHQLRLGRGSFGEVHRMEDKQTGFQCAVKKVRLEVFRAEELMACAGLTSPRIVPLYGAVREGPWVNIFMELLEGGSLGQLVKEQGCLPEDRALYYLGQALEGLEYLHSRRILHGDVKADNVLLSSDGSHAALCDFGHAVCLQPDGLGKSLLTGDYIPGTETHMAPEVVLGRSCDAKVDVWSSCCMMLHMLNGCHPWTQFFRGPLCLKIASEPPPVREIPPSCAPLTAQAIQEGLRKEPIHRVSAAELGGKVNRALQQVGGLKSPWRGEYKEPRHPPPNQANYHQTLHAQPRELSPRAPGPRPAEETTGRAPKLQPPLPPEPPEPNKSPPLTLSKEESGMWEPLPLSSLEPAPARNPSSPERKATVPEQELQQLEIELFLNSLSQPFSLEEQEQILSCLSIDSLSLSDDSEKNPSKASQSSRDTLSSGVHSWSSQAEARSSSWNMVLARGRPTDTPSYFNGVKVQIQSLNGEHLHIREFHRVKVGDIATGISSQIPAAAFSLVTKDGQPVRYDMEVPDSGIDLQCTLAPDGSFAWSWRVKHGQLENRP
Summary of the method: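 AlphaScreen readout of anti-phospho-IKK Ser176/180 signal after 1 h, 25° C. incubation of 0.2 nM GST-NIK with compound and 25 microM ATP (Tris pH 7.5 buffer, MgCl2, 1% DMSO final). IC50 from sigmoidal fit of blank-corrected % inhibition against Log10 concentration.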

[3] = biological target: T1, Recombinant Human NF-kappaB-Inducing Kinase (NIK/MAP3K14); test: Biological Assay A: inhibition of recombinant human NIK/MAP3K14 activity (MBP phosphorylation, Mesoscale); type: biochemical; conditions: averaged over all measurements on all batches; read-out: Biochemical (MSD MBP) IC50
Protocol: Inhibition of Recombinant Human NF-kappaB-Inducing Kinase (NIK/MAP3K14) Activity
Assay buffer was 50 mM Tris pH 7.5 containing 1 mM EGTA (ethylene glycol tetraacetic acid), 1 mM DTT (dithiothreitol), 0.1 mM Na3VO4, 5 mM MgCl2, 0.01% Tween 20. Assays were carried out in 384 well Mesoscale high binding plates which had been coated with myelin basic protein (MBP) and blocked with bovine serum albumin to prevent non-specific protein binding. All compounds tested were dissolved in dimethyl sulfoxide (DMSO) and further dilutions were made in assay buffer. Final DMSO concentration was 1% (v/v) in assays. Incubations consisted of compound (1% DMSO in control and blank wells), 25 μM Adenosine-5′-triphosphate (ATP), and 10 nM NIK/MAP3K14 substituting enzyme with buffer in the blank wells. Incubations were carried out for 1 h at 25° C. and were followed by washing and sequential incubation with rabbit anti-phospho-MBP and anti-rabbit Ig Sulfotag antibody before reading bound Sulfotag on a Mesoscale Discovery. Signal obtained in the wells containing blank samples was subtracted from all other wells and IC50's were determined by fitting a sigmoidal curve to % inhibition of control versus Log10 compound concentration.

Row | SMILES | EC50 (L-363 cells) [µM] | IC50 [1] [µM] | EC50 (LP-1 cells) [µM] | EC50 (JJN-3 cells) [µM] | IC50 [2] [µM] | IC50 [3] [µM]
1 | CN1CC(n2cc(-c3nc(N)ncc3F)c3cc(C#CC(C)(C)O)ncc32)C1 [Compound 70] | 0.12 | 0.051 | 3 | 0.21 | 0.13 | 0.028
2 | CC(C)(O)C#Cc1cc2c(-c3ccnc(N)n3)cn(CCC#N)c2cn1 [Compound 57] | 0.91 | 0.18 | 31 | 1.3 | 0.023 | 0.017
3 | CC(O)C#Cc1cc2c(-c3ccnc(N)n3)cn(C(C)C)c2cn1 (stereo not drawn) [Compound 10] | 0.046 | 0.1 | 0.23 | 0.08 | 0.029 | 0.0092
4 | COCCCn1cc(-c2ccnc(N)n2)c2cc(C#CC(C)(C)O)ncc21 [Compound 44] | 0.4 | 0.036 | 1.7 | 0.25 | 0.021 | 0.025
5 | CC(C)(O)Cn1cc(-c2ccnc(N)n2)c2cc(C#CC(C)(O)C3CCC3)ncc21 (stereo not drawn) [Compound 37] | 16 | 0.33 | > 10 | 3.6 | 0.1 | 0.045
6 | CN1CC(n2cc(-c3ccnc(N)n3)c3cc(C#CC(C)(C)O)ncc32)C1 [Compound 34] | 0.24 | 0.16 | 4.1 | 0.33 | 0.042 | 0.076
7 | CC(C)(O)Cn1cc(-c2nc(N)ncc2Cl)c2cc(C#CC3(O)CC3)ncc21 [Compound 21] | 0.074 | 0.013 | 2.8 | 0.066 | 0.003 | 0.018
8 | CC(C)(O)C#Cc1cc2c(-c3nc(N)ncc3F)c[nH]c2cn1 [Compound 45] | 0.09 | 0.012 | 0.59 | 0.022 | 0.002 | 0.0039
9 | CC(C)(O)C#Cc1cc2c(-c3ccnc(N)n3)cn(C3CNC3)c2cn1 [Compound 113] | 4.6 | 0.66 | 24 | 1.4 | 0.038 | 0.052
10 | CNc1nccc(-c2c[nH]c3cnc(C#CC(C)(C)O)cc23)n1 [Compound 4] | 0.4 | 0.13 | 5.3 | 0.42 | 0.021 | 0.046
11 | Cc1c(-c2ccnc(N)n2)c2cc(C#CC(C)(C)O)ncc2n1CC(C)(C)O [Compound 46] | 3.6 | 0.18 | > 10 | 1.1 | 0.055 | 0.06
12 | CC(C)(O)C#Cc1cc2c(-c3ccnc(N)n3)cn(CC3CCNCC3)c2cn1 [Compound 114] | 1.5 | 3.8 | 5.5 | 1.6 | 0.19 | 0.16
13 | CC(C)(O)C#Cc1cc2c(-c3nc(N)ncc3C(F)(F)F)c[nH]c2cn1 [Compound 61] | 0.34 | 0.023 | 4.6 | 0.26 | 0.005 | 0.0038
14 | COCCn1cc(-c2ccnc(N)n2)c2cc(C#CC(C)(O)C3CC3)ncc21 (stereo not drawn) [Compound 32] | 0.74 | 0.089 | 1.5 | 0.46 | 0.04 | 0.059
15 | CC(C)n1cc(-c2nc(N)ncc2Cl)c2cc(C#CC(C)(C)O)ncc21 [Compound 16] | 0.057 | 0.0073 | 0.092 | 0.035 | 0.002 | 0.0043
16 | CC(C)(O)C#Cc1cc2c(-c3ccnc(N)n3)cn(CC3COC3)c2cn1 [Compound 28] | 0.81 | 0.084 | 5.8 | 1.2 | 0.049 | 0.017
17 | CC(C)(O)C#Cc1cc2c(-c3ccnc(N)n3)cn(CC(C)(C)O)c2cn1 [Compound 3] | 0.23 | 0.075 | 11 | 0.5 | 0.034 | 0.015
18 | CC(C)(O)C#Cc1cc2c(-c3ccnc(N)n3)cn(CCC(C)(C)O)c2cn1 [Compound 51] | 2.4 | 0.083 | > 10 | 0.99 | 0.023 | 0.048
19 | Cc1cnc(N)nc1-c1c[nH]c2cnc(C#CC(C)(C)O)cc12 [Compound 112] | 1.3 | 0.14 | 14 | 0.44 | 0.017 | 0.0063
20 | CC(C)(O)Cn1cc(-c2ccnc(N)n2)c2cc(C#CC3(O)CCCCC3)ncc21 [Compound 38] | 15 | 0.37 | > 10 | 1.9 | 0.056 | 0.021
21 | CC(C)(O)Cn1cc(-c2ccnc(N)n2)c2cc(C#CC(C)(O)c3nccs3)ncc21 (stereo not drawn) [Compound 27] | > 10 | 0.36 | > 10 | 9.7 | 0.07 | 0.025
22 | CC(C)(O)C#Cc1cc2c(-c3ccnc(N)n3)cn(CCN3CC(=O)NC3=O)c2cn1 [Compound 116] | 11 | 5.3 | > 10 | 5.6 | 0.17 | 0.12
